Assay results as given in patent publication US10568950B1, “Peptides, combination of peptides and scaffolds for use in immunotherapeutic treatment of various cancers” (Immatics Biotechnologies GmbH, priority 2015, dated 2020).

Columns and labels:
[1] = tested on: CD8+ T cells of healthy HLA-A*24+ donors; test: In vitro immunogenicity: priming of CD8+ T cells with aAPCs loaded with HLA-A*24/peptide complexes and anti-CD28, multimer staining; type: cell-based, human; details: in vitro immunogenicity, HLA-A*24 peptides of Table 12B
Description: CD8+ T cells were primed using artificial APCs coated with anti-CD28 mAb and HLA-A*24 in complex with SEQ ID NO: 99 peptide (FIG. 5A, left panel), SEQ ID NO: 119 peptide (FIG. 5B, left panel), SEQ ID NO: 142 peptide (FIG. 5C, left panel) and SEQ ID NO: 174 peptide (FIG. 5D, left panel), respectively. After three cycles of stimulation, the detection of peptide-reactive cells was performed by 2D multimer staining with A*24/SEQ ID NO: 99 (A), A*24/SEQ ID NO: 119 (B), A*24/SEQ ID NO: 142 (C) or A*24/SEQ ID NO: 174 (D). Right panels (FIGS. 5A, 5B, 5C and 5D) show control staining of cells stimulated with irrelevant A*24/peptide complexes. Viable singlet cells were gated for CD8+ lymphocytes. Boolean gates helped excluding false-positive events detected with multimers specific for different peptides. Frequencies of specific multimer+ cells among CD8+ lymphocytes are indicated.
In order to obtain information regarding the immunogenicity of the TUMAPs of the present invention, the inventors performed investigations using an in vitro T-cell priming assay based on repeated stimulations of CD8+ T cells with artificial antigen presenting cells (aAPCs) loaded with peptide/MHC complexes and anti-CD28 antibody.
PBMCs and isolated CD8+ lymphocytes were incubated in T-cell medium (TCM) until use consisting of RPMI-Glutamax (Invitrogen, Karlsruhe, Germany) supplemented with 10% heat inactivated human AB serum (PAN-Biotech, Aidenbach, Germany), 100 U/ml Penicillin/100 μg/ml Streptomycin (Cambrex, Cologne, Germany), 1 mM sodium pyruvate (CC Pro, Oberdorla, Germany), 20 μg/ml Gentamycin (Cambrex). 2.5 ng/ml IL-7 (PromoCell, Heidelberg, Germany) and 10 U/ml IL-2 (Novartis Pharma, Nurnberg, Germany) were also added to the TCM at this step.
Generation of pMHC/anti-CD28 coated beads, T-cell stimulations and readout was performed in a highly defined in vitro system using four different pMHC molecules per stimulation condition and 8 different pMHC molecules per readout condition.
The purified co-stimulatory mouse IgG2a anti human CD28 Ab 9.3 (Jung et al., 1987) was chemically biotinylated using Sulfo-N-hydroxysuccinimidobiotin as recommended by the manufacturer (Perbio, Bonn, Germany). Beads used were 5.6 μm diameter streptavidin coated polystyrene particles (Bangs Laboratories, Illinois, USA).
800.000 beads/200 μl were coated in 96-well plates in the presence of 4×12.5 ng different biotin-pMHC, washed and 600 ng biotin anti-CD28 were added subsequently in a volume of 200 μl. Stimulations were initiated in 96-well plates by co-incubating […] CD8+ T cells with 2×10^5 washed coated beads in 200 μl TCM supplemented with 5 ng/ml IL-12 (PromoCell) for 3 days at 37° C. Half of the medium was then exchanged by fresh TCM supplemented with 80 U/ml IL-2 and incubating was continued for 4 days at 37° C. This stimulation cycle was performed for a total of three times. For the pMHC multimer readout using 8 different pMHC molecules per condition, a two-dimensional combinatorial coding approach was used as previously described (Andersen et al., 2012) with minor modifications encompassing coupling to 5 different fluorochromes. Finally, multimeric analyses were performed by staining the cells with Live/dead near IR dye (Invitrogen, Karlsruhe, Germany), CD8-FITC antibody clone SKI (BD, Heidelberg, Germany) and fluorescent pMHC multimers. For analysis, a BD LSRII SORP cytometer equipped with appropriate lasers and filters was used. Peptide specific cells were calculated as percentage of total CD8+ cells. Evaluation of multimeric analysis was done using the FlowJo software (Tree Star, Oreg., USA). In vitro priming of specific multimer+ CD8+ lymphocytes was detected by comparing to negative control stimulations.

HLA-A*24 = test: MHC binding assay: UV-ligand exchange, beta2m ELISA (peptide exchange yield); design: species or system human; details: binding to HLA-A*24, β2m ELISA
Source text: Candidate peptides for T cell based therapies according to the present invention were further tested for their MHC binding capacity (affinity). The individual peptide-MHC complexes were produced by UV-ligand exchange, where a UV-sensitive peptide is cleaved upon UV-irradiation, and exchanged with the peptide of interest as analyzed. Only peptide candidates that can effectively bind and stabilize the peptide-receptive MHC molecules prevent dissociation of the MHC complexes. To determine the yield of the exchange reaction, an ELISA was performed based on the detection of the light chain (β2m) of stabilized MHC complexes. The assay was performed as generally described in Rodenko et al. (Rodenko et al., 2006).
96 well MAXISorp plates (NUNC) were coated over night with 2 ug/ml streptavidin in PBS at room temperature, washed 4× and blocked for 1 h at 37° C. in 2% BSA containing blocking buffer. […] Peptide-MHC monomers of the UV-exchange reaction were diluted 100 fold in blocking buffer. Samples were incubated for 1 h at 37° C., washed four times, incubated with 2 ug/ml HRP conjugated anti-βm for 1 h at 37° C., washed again and detected with TMB solution that is stopped with […]. Absorption was measured at 450 nm. Candidate peptides that show a high exchange yield (preferably higher than 50%, most preferred higher than 75%) are generally preferred for a generation and production of antibodies or fragments thereof, and/or T cell receptors or fragments thereof, as they show sufficient avidity to the MHC molecules and prevent dissociation of the MHC complexes.

Row | Peptide exchange (MHC class I binding score, peptide exchange yield) (HLA-A*24) | Substance | Wells positive [%] [1]
1 | – | 98 (VFPRLHNVLF; listed as Homo sapiens) [compound 98] | + (<20% = +)
2 | – | 102 (VYPFENFEF; listed as Homo sapiens) [compound 102] | +++ (50%-69% = +++)
3 | – | 103 (NYIPVKNGKQF; listed as Homo sapiens) [compound 103] | + (<20% = +)
4 | – | 105 (IYNETITDLL; listed as Homo sapiens) [compound 105] | + (<20% = +)
5 | – | 106 (IYNETVRDLL; listed as Homo sapiens) [compound 106] | + (<20% = +)
6 | – | 107 (KYFPYLVVI; listed as Homo sapiens) [compound 107] | ++ (20%-49% = ++)
7 | – | 110 (SYPKIIEEF; listed as Homo sapiens) [compound 110] | ++ (20%-49% = ++)
8 | – | 111 (VYVQILQKL; listed as Homo sapiens) [compound 111] | + (<20% = +)
9 | – | 112 (IYNFVESKL; listed as Homo sapiens) [compound 112] | +++ (50%-69% = +++)
10 | – | 115 (RYLNKSFVL; listed as Homo sapiens) [compound 115] | + (<20% = +)
11 | – | 119 (VYRVYVTTF; listed as Homo sapiens) [compound 119] | +++ (50%-69% = +++)
12 | – | 122 (EYQARIPEF; listed as Homo sapiens) [compound 122] | ++ (20%-49% = ++)
13 | – | 139 (IFGIFPNQF; listed as Homo sapiens) [compound 139] | ++ (20%-49% = ++)
14 | – | 142 (VYVDDIYVI; listed as Homo sapiens) [compound 142] | ++++ (>= 70 % = ++++)
15 | – | 157 (DYIPASGFALF; listed as Homo sapiens) [compound 157] | + (<20% = +)
16 | – | 158 (IYEETRGVLKVF; listed as Homo sapiens) [compound 158] | + (<20% = +)

Row | Peptide exchange (MHC class I binding score, peptide exchange yield) (HLA-A*24) | Substance | Wells positive [%] [1]
17 | – | 160 (RYGDGGSSF; listed as Homo sapiens) [compound 160] | + (<20% = +)
18 | – | 161 (KYPDIVQQF; listed as Homo sapiens) [compound 161] | + (<20% = +)
19 | – | 162 (KYTSYILAF; listed as Homo sapiens) [compound 162] | + (<20% = +)
20 | – | 164 (HYVPATKVF; listed as Homo sapiens) [compound 164] | + (<20% = +)
21 | – | 167 (RYGFYYVEF; listed as Homo sapiens) [compound 167] | ++++ (>= 70 % = ++++)
22 | – | 168 (RYLEAALRL; listed as Homo sapiens) [compound 168] | +++ (50%-69% = +++)
23 | – | 171 (NYEDHFPLL; listed as Homo sapiens) [compound 171] | ++ (20%-49% = ++)
24 | – | 174 (VYEKNGYIYF; listed as Homo sapiens) [compound 174] | ++++ (>= 70 % = ++++)
25 | – | 175 (LYSPVPFTL; listed as Homo sapiens) [compound 175] | + (<20% = +)
26 | – | 177 (VYFKAGLDVF; listed as Homo sapiens) [compound 177] | + (<20% = +)
27 | – | 179 (TYIPVGLGRLL; listed as Homo sapiens) [compound 179] | +++ (50%-69% = +++)
28 | – | 180 (KYLQVVGMF; listed as Homo sapiens) [compound 180] | + (<20% = +)
29 | – | 181 (VYPPYLNYL; listed as Homo sapiens) [compound 181] | ++++ (>= 70 % = ++++)
30 | – | 190 (LYSELTETL; listed as Homo sapiens) [compound 190] | ++++ (>= 70 % = ++++)
31 | ++++ (>= 75% = ++++) | 357 (QFITSTNTF; listed as Homo sapiens) [compound 357] | –
32 | ++++ (>= 75% = ++++) | 379 (VFIAQGYTL; listed as Homo sapiens) [compound 379] | –
